Reference: PubChem BioAssay AID743264
The source made the active and inactive calls.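 How the source made its calls: active means mean IC50 for blocking HCV helicase binding to DNA at 50 µM or lower; inactive means mean IC50 above 50 µM.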

Molecular target: HCV NS3 helicase (NS3h) (UniProt A3EZJ3)
Experiment: HCV NS3 helicase inhibitor potency, dose response, biochemical, fluorescence polarization, ChemBridge library (AID 743264)
Conditions: NS3h binding Cy5-dT15 DNA

HCV NS3 helicase (NS3h), sequence (A3EZJ3 1-631): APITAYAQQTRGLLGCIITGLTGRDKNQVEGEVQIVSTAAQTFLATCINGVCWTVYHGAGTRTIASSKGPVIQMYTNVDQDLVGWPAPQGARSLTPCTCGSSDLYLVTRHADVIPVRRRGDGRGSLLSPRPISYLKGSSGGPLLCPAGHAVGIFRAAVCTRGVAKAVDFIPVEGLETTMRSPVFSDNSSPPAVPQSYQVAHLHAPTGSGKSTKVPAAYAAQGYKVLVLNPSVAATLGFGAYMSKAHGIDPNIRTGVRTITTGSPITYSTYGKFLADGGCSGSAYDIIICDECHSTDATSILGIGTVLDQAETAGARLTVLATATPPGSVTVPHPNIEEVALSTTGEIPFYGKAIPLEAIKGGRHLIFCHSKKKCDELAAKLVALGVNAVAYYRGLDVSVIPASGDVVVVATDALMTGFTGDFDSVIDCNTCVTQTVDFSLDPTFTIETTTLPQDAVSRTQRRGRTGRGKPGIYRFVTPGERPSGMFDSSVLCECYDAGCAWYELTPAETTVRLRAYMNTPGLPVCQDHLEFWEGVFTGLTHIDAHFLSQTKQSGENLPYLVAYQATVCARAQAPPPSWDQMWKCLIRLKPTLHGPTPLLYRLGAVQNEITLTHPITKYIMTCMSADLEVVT

## Cc1ccc(N2C(=O)C=CC2=O)c(Br)c1
  IC50: inactive

## O=C1C=CC(=O)N1c1cccc([N+](=O)[O-])c1
  IC50: inactive
